Source: patent US20240109903A1, “SUBSTITUTED HETEROCYCLES FOR TREATING CANCER” (Northwestern University, priority 2022, published 2024)

Tests used:
full NCI 60 cell panel = assay: NCI 60 Cell One-dose screen; type: cell-based, human; conditions: single high dose 10^−5 M, NCI 60 panel
Source text: Compounds were submitted to the NCI 60 Cell screen and tested at a single high dose (10^−5 M) in the full NCI 60 cell panel (see the following reference for details of using NCI 60 human tumor cell lines for screening anticancer drugs: Shoemaker R H. The NCI60 human tumor cell line anticancer drug screen. Nature Rev Cancer 2006; 6: 813-23). The One-dose data is reported as a mean graph of the percent growth of treated cells. The number reported for the One-dose assay is growth relative to the no-drug control, and relative to the time zero number of cells. This allows detection of both growth inhibition (values between 0 and 100) and lethality (values less than 0). For example, a value of 100 means no growth inhibition. A value of 40 would mean 60% growth inhibition. A value of 0 means no net growth over the course of the experiment. A value of −40 would mean 40% lethality. A value of −100 means all cells are dead. FIGS. 1-8 show the mean graph of percent growth against the NCI-60 cell panel for NUCC-0226674, NUCC-0226679, NUCC-0226680, NUCC-0226683, NUCC-0226689, NUCC-0226694, NUCC-0226695, and NUCC-0226698.

HL-60(TB) = assay: NCI 60 five-dose screen HL-60(TB); type: cell-based; conditions: Homo sapiens
MOLT-4 = assay: NCI 60 five-dose screen MOLT-4; type: cell-based; conditions: Homo sapiens
RPMI-8226 = assay: NCI 60 five-dose screen RPMI-8226; type: cell-based; conditions: Homo sapiens
SR = assay: NCI 60 five-dose screen SR; type: cell-based, human
NCI-H226 = assay: NCI 60 five-dose screen NCI-H226; type: cell-based; conditions: Homo sapiens
NCI-H322M = assay: NCI 60 five-dose screen NCI-H322M; type: cell-based; conditions: Homo sapiens
COLO 205 = assay: NCI 60 five-dose screen COLO 205; type: cell-based; conditions: Homo sapiens
KM12 = assay: NCI 60 five-dose screen KM12; type: cell-based; conditions: Homo sapiens
U251 = assay: NCI 60 five-dose screen U251; type: cell-based; conditions: Homo sapiens
LOX IMVI = assay: NCI 60 five-dose screen LOX IMVI; type: cell-based; conditions: Homo sapiens
MDA-MB-435 = assay: NCI 60 five-dose screen MDA-MB-435; type: cell-based; conditions: Homo sapiens
SK-MEL-28 = assay: NCI 60 five-dose screen SK-MEL-28; type: cell-based; conditions: Homo sapiens
SK-MEL-5 = assay: NCI 60 five-dose screen SK-MEL-5; type: cell-based; conditions: Homo sapiens
UACC-62 = assay: NCI 60 five-dose screen UACC-62; type: cell-based; conditions: Homo sapiens
OVCAR-5 = assay: NCI 60 five-dose screen OVCAR-5; type: cell-based; conditions: Homo sapiens
OVCAR-8 = assay: NCI 60 five-dose screen OVCAR-8; type: cell-based; conditions: Homo sapiens
786-0 = assay: NCI 60 five-dose screen 786-0; type: cell-based; conditions: Homo sapiens
RXF 393 = assay: NCI 60 five-dose screen RXF 393; type: cell-based; conditions: Homo sapiens
SN12C = assay: NCI 60 five-dose screen SN12C; type: cell-based; conditions: Homo sapiens
TK-10 = assay: NCI 60 five-dose screen TK-10; type: cell-based; conditions: Homo sapiens
MDA-MB-231/ATCC = assay: NCI 60 five-dose screen MDA-MB-231/ATCC; type: cell-based; conditions: Homo sapiens
BT-549 = assay: NCI 60 five-dose screen BT-549; type: cell-based; conditions: Homo sapiens
MDA-MB-468 = assay: NCI 60 five-dose screen MDA-MB-468; type: cell-based; conditions: Homo sapiens
[1] = read-out: LC50 (the source's name) (converted)
[2] = read-out: LC50 (the source's name)

Which results are given for `Fc1ccc(N2CC(Cn3c(C(F)(F)F)cc4c(Cl)ncnc43)C2)c(F)c1` [NUCC-0226695]?
growth inhibition in the One-Dose Screen (full NCI 60 cell panel): significant growth inhibition; GI50 (HL-60(TB)): 2240 nM; IC50 (HL-60(TB)): 3.89 µM; IC (TGI) (HL-60(TB)): 6.31 µM; CC50 (HL-60(TB); [1]): ≥ 100 µM; GI50 (MOLT-4): 3.09 µM; IC50 (MOLT-4): 4.57 µM; IC (TGI) (MOLT-4): 8.91 µM; CC50 (MOLT-4; [2]): ≥ 100 µM; GI50 (RPMI-8226): 23.4 µM; IC50 (RPMI-8226): 37.2 µM; IC (TGI) (RPMI-8226): 64.6 µM; CC50 (RPMI-8226; [2]): ≥ 100 µM; TGI (SR): 5.16 −log[M]; GI50 (SR; Homo sapiens): 2140 nM; IC50 (SR; Homo sapiens): 3.39 µM; CC50 (SR; Homo sapiens, read-out: LC50 (the source's name)): ≥ 100 µM; GI50 (NCI-H226): 14.1 µM; IC50 (NCI-H226): 33.9 µM; IC (TGI) (NCI-H226): 30.9 µM; CC50 (NCI-H226; [1]): 69.2 µM; GI50 (NCI-H322M): 10.7 µM; IC50 (NCI-H322M): 20.4 µM; IC (TGI) (NCI-H322M): 22.9 µM; CC50 (NCI-H322M; [1]): 47.9 µM; GI50 (COLO 205): 15.1 µM; IC50 (COLO 205): 26.9 µM; IC (TGI) (COLO 205): 32.4 µM; CC50 (COLO 205; [1]): 70.8 µM; GI50 (KM12): 16.2 µM; IC50 (KM12): 28.2 µM; IC (TGI) (KM12): 30.9 µM; CC50 (KM12; [1]): 60.3 µM; GI50 (U251; U-251): 1910 nM; IC50 (U251; U-251): 3.24 µM; IC (TGI) (U251; U-251): 3.8 µM; CC50 (U251; U-251, read-out: LC50 (the source's name) (converted)): 7.76 µM; GI50 (LOX IMVI): 1620 nM; IC50 (LOX IMVI): 2820 nM; IC (TGI) (LOX IMVI): 3.02 µM; CC50 (LOX IMVI; [1]): 5.5 µM; GI50 (MDA-MB-435): 4.9 µM; IC50 (MDA-MB-435): 7.59 µM; IC (TGI) (MDA-MB-435): 17.8 µM; CC50 (MDA-MB-435; [1]): 44.7 µM; GI50 (SK-MEL-28): 2090 nM; IC50 (SK-MEL-28): 3.63 µM; IC (TGI) (SK-MEL-28): 4.9 µM; CC50 (SK-MEL-28; [1]): 16.6 µM; GI50 (SK-MEL-5): 11 µM; IC50 (SK-MEL-5): 18.2 µM; IC (TGI) (SK-MEL-5): 22.9 µM; CC50 (SK-MEL-5; [1]): 47.9 µM; GI50 (UACC-62): 3.16 µM; IC50 (UACC-62): 5.62 µM; IC (TGI) (UACC-62): 12.9 µM; CC50 (UACC-62; [1]): 36.3 µM; GI50 (OVCAR-5): 17.8 µM; IC50 (OVCAR-5): 32.4 µM; IC (TGI) (OVCAR-5): 37.2 µM; CC50 (OVCAR-5; [1]): 77.6 µM; GI50 (OVCAR-8): 2140 nM; IC50 (OVCAR-8): 3.47 µM; IC (TGI) (OVCAR-8): 5.01 µM; CC50 (OVCAR-8; [1]): 19.1 µM; GI50 (786-0): 14.8 µM; IC50 (786-0): 26.3 µM; IC (TGI) (786-0): 28.8 µM; CC50 (786-0; [1]): 57.5 µM; GI50 (RXF 393): 2090 nM; IC50 (RXF 393): 5.37 µM; IC (TGI) (RXF 393): 5.01 µM; CC50 (RXF 393; [1]): 15.5 µM; GI50 (SN12C): 1950 nM; IC50 (SN12C): 3.31 µM; IC (TGI) (SN12C): 5.01 µM; CC50 (SN12C; [1]): 16.2 µM; GI50 (TK-10): 19.1 µM; IC50 (TK-10): 42.7 µM; IC (TGI) (TK-10): 51.3 µM; CC50 (TK-10; [1]): ≥ 100 µM; GI50 (MDA-MB-231/ATCC): 1620 nM; IC50 (MDA-MB-231/ATCC): 2950 nM; IC (TGI) (MDA-MB-231/ATCC): 3.09 µM; CC50 (MDA-MB-231/ATCC; [1]): 5.89 µM; GI50 (BT-549): 10.7 µM; IC50 (BT-549): 23.4 µM; IC (TGI) (BT-549): 22.9 µM; CC50 (BT-549; [1]): 49 µM; GI50 (MDA-MB-468): 1620 nM; IC50 (MDA-MB-468): 3.39 µM; IC (TGI) (MDA-MB-468): 3.24 µM; CC50 (MDA-MB-468; [1]): 6.31 µM
